Source: ChEMBL document CHEMBL4507300 (2021)

Legend:
[1] = test system: Mast/stem cell growth factor receptor Kit (Homo sapiens), P10721 [L576P]; conditions: Compound concentration 1000.0 nM
[2] = target: Testis-specific serine/threonine-protein kinase 3 (Homo sapiens) (UniProt Q96PN8); conditions: Compound concentration 1000.0 nM
[3] = test system: Phosphatidylinositol 4,5-bisphosphate 3-kinase catalytic subunit alpha isoform (Homo sapiens), P42336 [Q546K]; conditions: Compound concentration 1000.0 nM
[4] = target: Inhibitor of nuclear factor kappa-B kinase subunit beta (Homo sapiens) (UniProt O14920); conditions: Compound concentration 1000.0 nM
[5] = target: Non-receptor tyrosine-protein kinase TYK2 (Homo sapiens) (UniProt P29597); conditions: Compound concentration 1000.0 nM
[6] = target: SRSF protein kinase 2 (Homo sapiens) (UniProt P78362); conditions: Compound concentration 1000.0 nM
[7] = target: Mitogen-activated protein kinase kinase kinase kinase 4 (Homo sapiens) (UniProt O95819); conditions: Compound concentration 1000.0 nM
[8] = target: Tyrosine-protein kinase Fyn (Homo sapiens) (UniProt P06241); conditions: Compound concentration 1000.0 nM
[9] = target: Serine/threonine-protein kinase SIK1 (Homo sapiens) (UniProt P57059); conditions: Compound concentration 1000.0 nM
[10] = target: Alpha-1B adrenergic receptor (Homo sapiens) (UniProt P35368); conditions: Compound concentration 10.0 uM
[11] = target: Serine/threonine-protein kinase B-raf (Homo sapiens) (UniProt P15056); conditions: Compound concentration 1000.0 nM
[12] = target: Histamine H4 receptor (Homo sapiens) (UniProt Q9H3N8); conditions: Compound concentration 10.0 uM
[13] = target: Serine/threonine-protein kinase DCLK2 (Homo sapiens) (UniProt Q8N568); conditions: Compound concentration 1000.0 nM
[14] = test system: Tyrosine-protein kinase ABL1 (Homo sapiens), P00519 [F317I]; conditions: Compound concentration 1000.0 nM
[15] = target: Serine/threonine-protein kinase haspin (Homo sapiens) (UniProt Q8TF76); conditions: Compound concentration 1000.0 nM
[16] = test system: Epidermal growth factor receptor (Homo sapiens), P00533 [UNDEFINED MUTATION]; conditions: Compound concentration 1000.0 nM
[17] = target: Mitogen-activated protein kinase kinase kinase 5 (Homo sapiens) (UniProt Q99683); conditions: Compound concentration 1000.0 nM
[18] = target: Phosphatidylinositol 4-phosphate 3-kinase C2 domain-containing subunit beta (Homo sapiens) (UniProt O00750); conditions: Compound concentration 1000.0 nM
[19] = target: Ribosomal protein S6 kinase alpha-3 (Homo sapiens) (UniProt P51812); conditions: Compound concentration 1000.0 nM
[20] = test system: Proto-oncogene tyrosine-protein kinase receptor Ret (Homo sapiens), P07949 [V804L]; conditions: Compound concentration 1000.0 nM
[21] = target: Tyrosine-protein kinase JAK1 (Homo sapiens) (UniProt P23458); conditions: Compound concentration 1000.0 nM
[22] = test system: Mast/stem cell growth factor receptor Kit (Homo sapiens), P10721 [V559D,V654A]; conditions: Compound concentration 1000.0 nM
[23] = target: Fibroblast growth factor receptor 2 (Homo sapiens) (UniProt P21802); conditions: Compound concentration 1000.0 nM
[24] = target: Myotonin-protein kinase (Homo sapiens) (UniProt Q09013); conditions: Compound concentration 1000.0 nM
[25] = target: Ephrin type-A receptor 2 (Homo sapiens) (UniProt P29317); conditions: Compound concentration 1000.0 nM
[26] = target: Cyclin-dependent kinase 17 (Homo sapiens) (UniProt Q00537); conditions: Compound concentration 1000.0 nM
[27] = target: MAP kinase-activated protein kinase 2 (Homo sapiens) (UniProt P49137); conditions: Compound concentration 1000.0 nM
[28] = target: Dual specificity tyrosine-phosphorylation-regulated kinase 1B (Homo sapiens) (UniProt Q9Y463); conditions: Compound concentration 1000.0 nM
[29] = target: Dual specificity protein kinase TTK (Homo sapiens) (UniProt P33981); conditions: Compound concentration 1000.0 nM
[30] = target: Mitogen-activated protein kinase 1 (Homo sapiens) (UniProt P28482); conditions: Compound concentration 1000.0 nM
[31] = target: Dual specificity tyrosine-phosphorylation-regulated kinase 1A (Homo sapiens) (UniProt Q13627); conditions: Compound concentration 1000.0 nM
[32] = target: LIM domain kinase 1 (Homo sapiens) (UniProt P53667); conditions: Compound concentration 1000.0 nM
[33] = target: Serine/threonine-protein kinase Sgk1 (Homo sapiens) (UniProt O00141); conditions: Compound concentration 1000.0 nM
[34] = target: Beta-3 adrenergic receptor (Homo sapiens) (UniProt P13945); conditions: Compound concentration 10.0 uM
[35] = target: Casein kinase I isoform alpha (Homo sapiens) (UniProt P48729); conditions: Compound concentration 1000.0 nM
[36] = target: Serine/threonine-protein kinase TAO3 (Homo sapiens) (UniProt Q9H2K8); conditions: Compound concentration 1000.0 nM
[37] = target: Tyrosine-protein kinase FRK (Homo sapiens) (UniProt P42685); conditions: Compound concentration 1000.0 nM
[38] = target: Inhibitor of nuclear factor kappa-B kinase subunit epsilon (Homo sapiens) (UniProt Q14164); conditions: Compound concentration 1000.0 nM
[39] = target: Dual specificity mitogen-activated protein kinase kinase 4 (Homo sapiens) (UniProt P45985); conditions: Compound concentration 1000.0 nM
[40] = target: Serine/threonine-protein kinase MAK (Homo sapiens) (UniProt P20794); conditions: Compound concentration 1000.0 nM
[41] = target: Serine/threonine-protein kinase 3 (Homo sapiens) (UniProt Q13188); conditions: Compound concentration 1000.0 nM
[42] = target: Serine/threonine-protein kinase pim-1 (Homo sapiens) (UniProt P11309); conditions: Compound concentration 1000.0 nM
[43] = target: Serine/threonine-protein kinase VRK2 (Homo sapiens) (UniProt Q86Y07); conditions: Compound concentration 1000.0 nM
[44] = target: Cyclin-dependent kinase-like 2 (Homo sapiens) (UniProt Q92772); conditions: Compound concentration 1000.0 nM
[45] = target: Serine/threonine-protein kinase WNK3 (Homo sapiens) (UniProt Q9BYP7); conditions: Compound concentration 1000.0 nM

Chain of Tyrosine-protein kinase ABL1 (Homo sapiens), P00519 [F317I] (P00519 whole entry F317I): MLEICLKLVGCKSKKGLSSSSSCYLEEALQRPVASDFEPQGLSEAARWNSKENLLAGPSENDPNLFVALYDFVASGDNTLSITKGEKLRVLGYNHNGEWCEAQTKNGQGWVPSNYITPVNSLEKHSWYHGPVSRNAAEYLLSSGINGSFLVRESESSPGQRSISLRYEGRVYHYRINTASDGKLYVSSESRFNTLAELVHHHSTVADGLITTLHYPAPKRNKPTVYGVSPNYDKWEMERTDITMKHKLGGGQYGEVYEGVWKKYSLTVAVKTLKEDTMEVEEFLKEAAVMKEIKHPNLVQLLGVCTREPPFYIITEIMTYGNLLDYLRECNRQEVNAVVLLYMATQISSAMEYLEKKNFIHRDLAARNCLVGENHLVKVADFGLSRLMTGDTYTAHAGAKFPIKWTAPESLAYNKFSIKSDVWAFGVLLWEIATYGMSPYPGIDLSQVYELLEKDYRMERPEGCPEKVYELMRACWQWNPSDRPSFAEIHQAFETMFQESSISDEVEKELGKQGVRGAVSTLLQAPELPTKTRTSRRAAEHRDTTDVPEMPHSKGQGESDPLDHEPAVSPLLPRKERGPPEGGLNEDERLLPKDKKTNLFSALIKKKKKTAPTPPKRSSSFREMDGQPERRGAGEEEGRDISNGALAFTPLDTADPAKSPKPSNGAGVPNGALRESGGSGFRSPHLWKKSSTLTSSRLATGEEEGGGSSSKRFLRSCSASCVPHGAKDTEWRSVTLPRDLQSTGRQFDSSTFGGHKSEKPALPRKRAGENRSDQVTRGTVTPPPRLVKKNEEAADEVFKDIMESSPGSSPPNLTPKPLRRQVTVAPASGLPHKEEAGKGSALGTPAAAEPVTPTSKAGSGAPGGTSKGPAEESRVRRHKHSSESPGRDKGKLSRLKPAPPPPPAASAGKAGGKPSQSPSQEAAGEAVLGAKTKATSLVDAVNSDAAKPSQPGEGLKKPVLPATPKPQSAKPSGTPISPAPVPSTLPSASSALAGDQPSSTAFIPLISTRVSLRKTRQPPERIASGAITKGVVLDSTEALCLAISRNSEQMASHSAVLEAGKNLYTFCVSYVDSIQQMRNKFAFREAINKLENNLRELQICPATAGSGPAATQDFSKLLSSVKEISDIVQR
Chain of Serine/threonine-protein kinase SIK1 (Homo sapiens) (P57059 whole entry): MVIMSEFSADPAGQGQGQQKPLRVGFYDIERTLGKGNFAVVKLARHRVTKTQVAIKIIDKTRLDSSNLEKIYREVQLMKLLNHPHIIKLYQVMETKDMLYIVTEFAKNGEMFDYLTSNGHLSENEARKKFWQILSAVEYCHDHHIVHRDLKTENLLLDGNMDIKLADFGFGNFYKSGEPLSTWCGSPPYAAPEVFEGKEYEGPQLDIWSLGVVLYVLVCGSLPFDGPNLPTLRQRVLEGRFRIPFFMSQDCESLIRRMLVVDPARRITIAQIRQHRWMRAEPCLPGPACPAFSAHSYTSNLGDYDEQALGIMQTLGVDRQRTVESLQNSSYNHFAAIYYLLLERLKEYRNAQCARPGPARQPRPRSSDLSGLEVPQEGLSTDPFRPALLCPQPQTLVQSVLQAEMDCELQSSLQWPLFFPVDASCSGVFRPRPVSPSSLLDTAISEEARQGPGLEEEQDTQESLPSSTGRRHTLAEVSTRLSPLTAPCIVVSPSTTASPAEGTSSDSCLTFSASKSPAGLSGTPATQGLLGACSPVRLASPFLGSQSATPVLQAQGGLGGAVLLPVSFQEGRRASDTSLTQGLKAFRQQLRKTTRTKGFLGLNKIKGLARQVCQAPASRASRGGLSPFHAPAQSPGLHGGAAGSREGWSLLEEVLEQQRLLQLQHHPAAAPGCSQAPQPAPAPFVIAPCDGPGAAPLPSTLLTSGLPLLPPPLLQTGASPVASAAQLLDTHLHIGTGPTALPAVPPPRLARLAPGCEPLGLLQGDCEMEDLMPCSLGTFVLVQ
Chain of Tyrosine-protein kinase Fyn (Homo sapiens) (P06241 2-537 limits assumed): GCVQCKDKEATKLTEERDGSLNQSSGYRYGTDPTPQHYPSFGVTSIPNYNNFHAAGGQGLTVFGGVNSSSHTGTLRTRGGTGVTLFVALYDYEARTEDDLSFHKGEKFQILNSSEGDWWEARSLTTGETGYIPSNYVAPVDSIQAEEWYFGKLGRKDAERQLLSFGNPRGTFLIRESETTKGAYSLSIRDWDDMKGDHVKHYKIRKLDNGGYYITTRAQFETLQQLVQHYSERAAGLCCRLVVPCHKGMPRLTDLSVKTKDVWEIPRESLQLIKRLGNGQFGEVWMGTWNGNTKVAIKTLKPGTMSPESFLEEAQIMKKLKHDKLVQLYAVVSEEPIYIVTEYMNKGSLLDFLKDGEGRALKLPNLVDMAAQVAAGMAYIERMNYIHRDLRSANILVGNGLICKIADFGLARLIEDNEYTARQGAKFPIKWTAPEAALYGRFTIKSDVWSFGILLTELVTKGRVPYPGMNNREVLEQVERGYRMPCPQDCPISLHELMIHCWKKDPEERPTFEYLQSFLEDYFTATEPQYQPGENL
Chain of Serine/threonine-protein kinase MAK (Homo sapiens) (P20794 whole entry): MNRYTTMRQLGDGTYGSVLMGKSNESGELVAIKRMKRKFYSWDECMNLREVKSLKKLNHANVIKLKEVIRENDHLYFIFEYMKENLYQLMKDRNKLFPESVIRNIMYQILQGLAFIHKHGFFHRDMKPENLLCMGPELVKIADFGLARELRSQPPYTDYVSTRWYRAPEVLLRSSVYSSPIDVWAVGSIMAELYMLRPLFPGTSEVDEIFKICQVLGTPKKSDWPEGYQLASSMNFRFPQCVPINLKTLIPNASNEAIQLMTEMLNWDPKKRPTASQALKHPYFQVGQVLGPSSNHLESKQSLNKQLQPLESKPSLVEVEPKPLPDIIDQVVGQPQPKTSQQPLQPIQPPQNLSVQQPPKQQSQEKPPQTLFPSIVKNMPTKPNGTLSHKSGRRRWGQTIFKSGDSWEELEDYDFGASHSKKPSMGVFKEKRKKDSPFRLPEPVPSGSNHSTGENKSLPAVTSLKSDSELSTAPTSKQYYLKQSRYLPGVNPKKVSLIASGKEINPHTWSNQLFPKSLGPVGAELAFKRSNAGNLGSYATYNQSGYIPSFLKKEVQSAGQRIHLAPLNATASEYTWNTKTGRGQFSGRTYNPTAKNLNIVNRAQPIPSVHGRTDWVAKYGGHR
Chain of Dual specificity mitogen-activated protein kinase kinase 4 (Homo sapiens) (P45985 whole entry): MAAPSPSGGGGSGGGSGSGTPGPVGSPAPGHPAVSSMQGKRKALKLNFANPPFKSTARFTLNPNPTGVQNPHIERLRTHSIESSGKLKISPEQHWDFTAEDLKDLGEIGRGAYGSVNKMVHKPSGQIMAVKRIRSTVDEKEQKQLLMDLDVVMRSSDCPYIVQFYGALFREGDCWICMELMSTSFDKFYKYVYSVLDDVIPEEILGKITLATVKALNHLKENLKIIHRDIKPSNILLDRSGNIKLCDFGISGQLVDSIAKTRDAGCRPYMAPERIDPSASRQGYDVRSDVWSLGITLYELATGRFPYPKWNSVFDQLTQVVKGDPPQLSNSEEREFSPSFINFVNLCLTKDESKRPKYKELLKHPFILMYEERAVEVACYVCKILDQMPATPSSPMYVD
Chain of Proto-oncogene tyrosine-protein kinase receptor Ret (Homo sapiens), P07949 [V804L] (P07949 whole entry V804L): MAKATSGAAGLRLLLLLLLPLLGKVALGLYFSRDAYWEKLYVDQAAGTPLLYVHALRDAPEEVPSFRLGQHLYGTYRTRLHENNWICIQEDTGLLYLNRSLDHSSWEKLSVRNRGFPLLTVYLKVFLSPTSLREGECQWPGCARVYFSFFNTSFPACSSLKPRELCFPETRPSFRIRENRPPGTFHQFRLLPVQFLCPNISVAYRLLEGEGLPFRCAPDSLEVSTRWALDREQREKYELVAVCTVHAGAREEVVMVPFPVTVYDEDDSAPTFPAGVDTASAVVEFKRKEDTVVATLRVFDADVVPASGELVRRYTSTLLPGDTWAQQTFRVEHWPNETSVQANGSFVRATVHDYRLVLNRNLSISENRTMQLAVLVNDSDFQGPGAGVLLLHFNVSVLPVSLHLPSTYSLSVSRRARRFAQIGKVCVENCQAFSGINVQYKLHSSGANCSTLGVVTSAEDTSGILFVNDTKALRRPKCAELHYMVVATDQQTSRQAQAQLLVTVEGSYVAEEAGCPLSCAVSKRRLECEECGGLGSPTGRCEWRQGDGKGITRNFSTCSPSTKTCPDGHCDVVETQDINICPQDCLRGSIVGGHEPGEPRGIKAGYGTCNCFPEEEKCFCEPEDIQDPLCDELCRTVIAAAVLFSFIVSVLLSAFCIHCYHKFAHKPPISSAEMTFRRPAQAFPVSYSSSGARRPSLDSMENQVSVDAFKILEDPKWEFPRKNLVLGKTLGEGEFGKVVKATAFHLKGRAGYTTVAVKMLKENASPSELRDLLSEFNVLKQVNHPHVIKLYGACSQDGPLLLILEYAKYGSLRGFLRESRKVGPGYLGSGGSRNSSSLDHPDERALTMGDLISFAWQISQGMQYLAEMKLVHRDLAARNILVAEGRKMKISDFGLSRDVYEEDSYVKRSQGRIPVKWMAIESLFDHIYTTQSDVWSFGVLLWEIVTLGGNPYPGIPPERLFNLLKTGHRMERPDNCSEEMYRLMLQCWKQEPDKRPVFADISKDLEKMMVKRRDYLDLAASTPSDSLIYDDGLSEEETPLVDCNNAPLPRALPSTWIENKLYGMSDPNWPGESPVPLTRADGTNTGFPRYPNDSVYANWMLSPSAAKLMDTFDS
Chain of Serine/threonine-protein kinase Sgk1 (Homo sapiens) (O00141 whole entry): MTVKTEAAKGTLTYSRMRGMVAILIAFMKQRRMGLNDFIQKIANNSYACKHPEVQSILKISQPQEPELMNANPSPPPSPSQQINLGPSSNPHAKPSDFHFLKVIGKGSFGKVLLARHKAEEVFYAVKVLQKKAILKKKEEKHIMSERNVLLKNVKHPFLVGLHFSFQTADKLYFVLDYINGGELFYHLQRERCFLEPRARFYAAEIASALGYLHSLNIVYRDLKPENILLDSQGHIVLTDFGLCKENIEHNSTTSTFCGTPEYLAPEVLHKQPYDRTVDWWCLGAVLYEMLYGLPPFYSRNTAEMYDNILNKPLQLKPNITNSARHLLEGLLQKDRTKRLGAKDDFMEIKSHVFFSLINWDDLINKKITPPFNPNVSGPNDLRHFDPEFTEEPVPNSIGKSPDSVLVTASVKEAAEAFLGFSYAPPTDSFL

COc1cccc(CNC(=O)c2nc3scc(COCc4ccc(C(=O)O)cc4)c3c(=O)[nH]2)c1 [T-26c]
inactive: residual activity [1] 100% | residual activity [2] 81.4% | residual activity [3] 70.4% | residual activity [4] 73.2% | residual activity [5] 79.8% | residual activity [6] 100% | residual activity [7] 92.3% | residual activity [8] 81.1% | residual activity [9] 100% | inhibition [10] 7.58% | residual activity [11] 72.8% | inhibition [12] 17.6% | residual activity [13] 100% | residual activity [14] 62.4% | residual activity [15] 92.5% | residual activity [16] 74% | residual activity [17] 97.8% | residual activity [18] 80.6% | residual activity [19] 100% | residual activity [20] 76.7% | residual activity [21] 93.9% | residual activity [22] 98% | residual activity [23] 100% | residual activity [24] 85.4% | residual activity [25] 100% | residual activity [26] 87.8% | residual activity [27] 64.3% | residual activity [28] 100% | residual activity [29] 92.8% | residual activity [30] 100% | residual activity [31] 89.5% | residual activity [32] 96.8% | residual activity [33] 93.4% | inhibition [34] 7.44% | residual activity [35] 82.1% | residual activity [36] 72.3% | residual activity [37] 83.7% | residual activity [38] 83.9% | residual activity [39] 59.7% | residual activity [40] 100% | residual activity [41] 100% | residual activity [42] 100% | residual activity [43] 74.2% | residual activity [44] 66.8% | residual activity [45] 83.6%
